Measured values taken from US20190282501A1, “HYDROALCOHOLIC FOAM FORMULATIONS OF NAFTIFINE” (priority 2016, published 2019).
Structures can show the parent of a compound that is named as a salt. Where two headings read alike, the source gives them in different places.

Key:
[1] = Method: To generate a foam composition that is capable of maintaining the high solubility of naftifine HCl without needing to add in surfactants, the solubility of the API with various excipients was tested. Naftifine hydrochloride was combined with different solvents to identify which solvents are able to solubilize the API. The objective of this study was to determine which solvents can be useful in the development of formulations where the API is soluble. The objective of this study was not to determine the maximal solubility of the API in the tested solvents.
To prepare the mixtures, the API was added at a 1% w/w concentration to each solvent at room temperature under mixing. Solubility at room temperature was then assessed after 24 hours by determining the presence of API crystals using microscopic observation at ×200 magnification under polarized light. The mixture was then heated to about 80° C. for 10 minutes and mixed. Solubility at 80° C. was assessed by visual observation. The mixture was then cooled to room temperature and solubility was assessed after 24 hours by determining the presence of API crystals using microscopic evaluation at ×200 magnification under polarized light.
The first column in Table 5 relates to the solubility at room temperature before heating to 80° C. The second column relates to the solubility at 80° C. as observed visually. The third column relates to the solubility after the mixture has been heated to 80° C. and cooled down to room temperature.

[2] = after 3m and after 6m at 25° C., 30° C. and 40° C.; stated below Table 6B (Formulation D)
Method: The amount of active agent present is analyzed in foam expelled from various pressurized canisters containing foam formulations using HPLC. Analysis is carried out at zero time and at appropriate time intervals thereafter. The canisters are stored in controlled temperature incubators at one or more of 5° C., at 25° C., at, 40° C. and at 50° C. At appropriate time intervals canisters are removed and the amount of active agent in the foam sample is measured.

[3] = in Capric caprylic triglycerides

CN(C/C=C/c1ccccc1)Cc1cccc2ccccc12 [naftifine hydrochloride, (E)-N-methyl-N-(1-naphthyl-methyl)-3-phenyl-2-propen-l-amine hydrochloride]
did not dissolve: Dissolution in hydrophobic solvents ([1]; hydrophobic solvents, even under heating)
stable: Stability of naftifine [2]
~6%: Maximum Solubility at 80° C. ([1]; in Polyethylene glycol 200)
<1%: Max. Solubility at RT after heating at 80° C. [1, 3] | Maximum Solubility at 80° C. [1, 3] | Maximum Solubility at RT [1, 3] | Max. Solubility at RT after heating at 80° C. ([1]; in Castor oil) | Maximum Solubility at 80° C. ([1]; in Castor oil) | Maximum Solubility at RT ([1]; in Castor oil) | Max. Solubility at RT after heating at 80° C. ([1]; in Cyclomethicone) | Maximum Solubility at 80° C. ([1]; in Cyclomethicone) | Maximum Solubility at RT ([1]; in Cyclomethicone) | Max. Solubility at RT after heating at 80° C. ([1]; in Diethyl sebacate) | Maximum Solubility at 80° C. ([1]; in Diethyl sebacate) | Maximum Solubility at RT ([1]; in Diethyl sebacate) | Max. Solubility at RT after heating at 80° C. ([1]; in Diisopropyl adipate) | Maximum Solubility at 80° C. ([1]; in Diisopropyl adipate) | Maximum Solubility at RT ([1]; in Diisopropyl adipate) | Max. Solubility at RT after heating at 80° C. ([1]; in Dimethyl isosorbide) | Maximum Solubility at 80° C. ([1]; in Dimethyl isosorbide) | Maximum Solubility at RT ([1]; in Dimethyl isosorbide) | Maximum Solubility at RT ([1]; in Glycerin) | Maximum Solubility at RT ([1]; in Glycofurol) | Maximum Solubility at RT ([1]; in Hexylene glycol) | Maximum Solubility at RT ([1]; in Isopropyl alcohol) | Max. Solubility at RT after heating at 80° C. ([1]; in Isopropyl myristate) | Maximum Solubility at 80° C. ([1]; in Isopropyl myristate) | Maximum Solubility at RT ([1]; in Isopropyl myristate) | Max. Solubility at RT after heating at 80° C. ([1]; in Isostearic acid) | Maximum Solubility at 80° C. ([1]; in Isostearic acid) | Maximum Solubility at RT ([1]; in Isostearic acid) | Max. Solubility at RT after heating at 80° C. ([1]; in Mineral oil light) | Maximum Solubility at 80° C. ([1]; in Mineral oil light) | Maximum Solubility at RT ([1]; in Mineral oil light) | Max. Solubility at RT after heating at 80° C. ([1]; in Octyldodecanol) | Maximum Solubility at 80° C. ([1]; in Octyldodecanol) | Maximum Solubility at RT ([1]; in Octyldodecanol) | Max. Solubility at RT after heating at 80° C. ([1]; in Oleic acid) | Maximum Solubility at 80° C. ([1]; in Oleic acid) | Maximum Solubility at RT ([1]; in Oleic acid) | Max. Solubility at RT after heating at 80° C. ([1]; in Oleyl alcohol) | Maximum Solubility at 80° C. ([1]; in Oleyl alcohol) | Maximum Solubility at RT ([1]; in Oleyl alcohol) | Max. Solubility at RT after heating at 80° C. ([1]; in Olive oil) | Maximum Solubility at 80° C. ([1]; in Olive oil) | Maximum Solubility at RT ([1]; in Olive oil) | Max. Solubility at RT after heating at 80° C. ([1]; in PPG-15 stearyl ether) | Maximum Solubility at 80° C. ([1]; in PPG-15 stearyl ether) | Maximum Solubility at RT ([1]; in PPG-15 stearyl ether) | Maximum Solubility at RT ([1]; in Polyethylene glycol 200) | Max. Solubility at RT after heating at 80° C. ([1]; in Polyethylene glycol 400) | Maximum Solubility at 80° C. ([1]; in Polyethylene glycol 400) | Maximum Solubility at RT ([1]; in Polyethylene glycol 400) | Maximum Solubility at RT ([1]; in Propylene glycol) | Max. Solubility at RT after heating at 80° C. ([1]; in Sodium pyroglutamic acid) | Maximum Solubility at 80° C. ([1]; in Sodium pyroglutamic acid) | Maximum Solubility at RT ([1]; in Sodium pyroglutamic acid) | Max. Solubility at RT after heating at 80° C. ([1]; in Soybean oil) | Maximum Solubility at 80° C. ([1]; in Soybean oil) | Maximum Solubility at RT ([1]; in Soybean oil) | Maximum Solubility at RT ([1]; in Transcutol) | Maximum Solubility at RT ([1]; in Water)
~1%: Max. Solubility at RT after heating at 80° C. ([1]; in Glycerin) | Maximum Solubility at 80° C. ([1]; in Glycerin) | Max. Solubility at RT after heating at 80° C. ([1]; in Glycofurol) | Maximum Solubility at 80° C. ([1]; in Glycofurol) | Max. Solubility at RT after heating at 80° C. ([1]; in Hexylene glycol) | Maximum Solubility at 80° C. ([1]; in Hexylene glycol) | Max. Solubility at RT after heating at 80° C. ([1]; in Water) | Maximum Solubility at 80° C. ([1]; in Water)
>8%: Max. Solubility at RT after heating at 80° C. ([1]; in Dimethyl sulfoxide) | Maximum Solubility at 80° C. ([1]; in Dimethyl sulfoxide) | Maximum Solubility at 80° C. ([1]; in Ethanol 95%) | Max. Solubility at RT after heating at 80° C. ([1]; in Ethanol 95%, hydrochloride) | Max. Solubility at RT after heating at 80° C. ([1]; in Propylene glycol) | Maximum Solubility at 80° C. ([1]; in Propylene glycol)
dissolved well: Dissolution in hydrophilic solvents ([1]; propylene glycol (after heating), ethanol, dimethyl sulfoxide and polyethylene glycol 200 (after heating))
higher than 8%: Max. Solubility at RT after heating at 80° C. ([1]; in Ethanol 95%, listed as naftifine HCl, hydrochloride)
~2%: Maximum Solubility at RT ([1]; in Dimethyl sulfoxide) | Max. Solubility at RT after heating at 80° C. ([1]; in Isopropyl alcohol) | Maximum Solubility at 80° C. ([1]; in Isopropyl alcohol) | Max. Solubility at RT after heating at 80° C. ([1]; in Transcutol) | Maximum Solubility at 80° C. ([1]; in Transcutol)
~4%: Maximum Solubility at RT ([1]; in Ethanol 95%)
~3%: Max. Solubility at RT after heating at 80° C. ([1]; in Polyethylene glycol 200)
